Assay results: ChEMBL document CHEMBL3045393, “Aryldiones incorporating a [1,4,5]oxadiazepane ring. Part I: Discovery of the novel cereal herbicide pinoxaden” (Bioorg Med Chem, 2009)

Columns and labels:
Hordeum vulgare [1] = assay: Phytotoxicity against Hordeum vulgare (barley) at 500 g a.i./ha applied post-emergence measured after 15 days; format: organism-based; settings: in vivo, other, 360 h
Setaria faberi [2] = assay: Post-emergence herbicidal activity against Setaria faberi (Giant Foxtail) at 500 g a.i./ha measured after 15 days; format: functional
Lolium perenne [3] = assay: Post-emergence herbicidal activity against Lolium perenne (perennial ryegrass) at 500 g a.i./ha measured after 15 days; format: functional
Avena fatua [4] = assay: Post-emergence herbicidal activity against Avena fatua at 500 g a.i./ha measured after 15 days; format: functional
Alopecurus myosuroides [5] = assay: Post-emergence herbicidal activity against Alopecurus myosuroides at 500 g a.i./ha measured after 15 days; format: functional
Triticum aestivum [6] = assay: Phytotoxicity against Triticum aestivum (wheat) at 500 g a.i./ha applied post-emergence measured after 15 days; format: organism-based; settings: in vivo, other, 360 h
Setaria faberi [7] = assay: Post-emergence herbicidal activity against Setaria faberi (Giant Foxtail) at 2000 g a.i./ha after 21 days; format: functional
Lolium perenne [8] = assay: Post-emergence herbicidal activity against Lolium perenne (perennial ryegrass) at 500 g a.i./ha after 21 days; format: functional
Lolium perenne [9] = assay: Post-emergence herbicidal activity against Lolium perenne (perennial ryegrass) at 2000 g a.i./ha after 21 days; format: functional
Avena fatua [10] = assay: Post-emergence herbicidal activity against Avena fatua at 500 g a.i./ha after 21 days; format: functional
Avena fatua [11] = assay: Post-emergence herbicidal activity against Avena fatua at 2000 g a.i./ha after 21 days; format: functional
Lolium perenne [12] = assay: Post-emergence herbicidal activity against Lolium perenne (perennial ryegrass) at 30 g a.i./ha measured after 21 days in presence of 1% Merge adjuvant; format: functional
Alopecurus myosuroides [13] = assay: Post-emergence herbicidal activity against Alopecurus myosuroides at 30 g a.i./ha measured after 21 days in presence of 1% Merge adjuvant; format: functional
Avena fatua [14] = assay: Post-emergence herbicidal activity against Avena fatua at 30 g a.i./ha measured after 21 days in presence of 1% Merge adjuvant; format: functional
Triticum aestivum [15] = assay: Phytotoxicity against Triticum aestivum (wheat) at 30 g a.i./ha applied post-emergence measured after 21 days in presence of 1% Merge adjuvant; format: organism-based; settings: in vivo, other, 504 h
Hordeum vulgare [16] = assay: Phytotoxicity against Hordeum vulgare (barley) at 30 g a.i./ha applied post-emergence measured after 21 days in presence of 1% Merge adjuvant; format: organism-based; settings: in vivo, other, 504 h
Setaria faberi [17] = assay: Post-emergence herbicidal activity against Setaria faberi (Giant Foxtail) at 250 g a.i./ha measured after 21 days in presence of 1% Merge adjuvant; format: functional
Lolium perenne [18] = assay: Post-emergence herbicidal activity against Lolium perenne (perennial ryegrass) at 250 g a.i./ha measured after 21 days in presence of 1% Merge adjuvant; format: functional
Alopecurus myosuroides [19] = assay: Post-emergence herbicidal activity against Alopecurus myosuroides at 250 g a.i./ha measured after 21 days in presence of 1% Merge adjuvant; format: functional
Triticum aestivum [20] = assay: Phytotoxicity against Triticum aestivum (wheat) at 250 g a.i./ha applied post-emergence measured after 21 days in presence of 1% Merge adjuvant; format: organism-based; settings: in vivo, other, 504 h
Hordeum vulgare [21] = assay: Phytotoxicity against Hordeum vulgare (barley) at 250 g a.i./ha applied post-emergence measured after 21 days in presence of 1% Merge adjuvant; format: organism-based; settings: in vivo, other, 504 h
Setaria faberi [22] = assay: Post-emergence herbicidal activity against Setaria faberi (Giant Foxtail) at 500 g a.i./ha after 21 days; format: functional
Setaria faberi [23] = assay: Post-emergence herbicidal activity against Setaria faberi (Giant Foxtail) at 30 g a.i./ha measured after 21 days in presence of 1% Merge adjuvant; format: functional
Avena fatua [24] = assay: Post-emergence herbicidal activity against Avena fatua at 250 g a.i./ha measured after 21 days in presence of 1% Merge adjuvant; format: functional
Lolium perenne [25] = assay: Post-emergence herbicidal activity against Lolium perenne (perennial ryegrass) at 125 g a.i./ha measured after 21 days in presence of 0.2% X-77 adjuvant; format: functional
Setaria faberi [26] = assay: Post-emergence herbicidal activity against Setaria faberi (Giant Foxtail) at 125 g a.i./ha measured after 21 days in presence of 0.2% X-77 adjuvant; format: functional
Avena fatua [27] = assay: Post-emergence herbicidal activity against Avena fatua at 125 g a.i./ha measured after 21 days in presence of 0.2% X-77 adjuvant; format: functional
Alopecurus myosuroides [28] = assay: Post-emergence herbicidal activity against Alopecurus myosuroides at 125 g a.i./ha measured after 21 days in presence of 0.2% X-77 adjuvant; format: functional
Triticum aestivum [29] = assay: Phytotoxicity against Triticum aestivum (wheat) at 125 g a.i./ha applied post-emergence measured after 21 days in presence of 0.2% X-77 adjuvant; format: organism-based; settings: in vivo, other, 504 h
Hordeum vulgare [30] = assay: Phytotoxicity against Hordeum vulgare (barley) at 125 g a.i./ha applied post-emergence measured after 21 days in presence of 0.2% X-77 adjuvant; format: organism-based; settings: in vivo, other, 504 h

| SMILES | Activity (Hordeum vulgare [1]) [%] | Activity (Setaria faberi [2]) [%] | Activity (Lolium perenne [3]) [%] | Activity (Avena fatua [4]) [%] | Activity (Alopecurus myosuroides [5]) [%] | Activity (Triticum aestivum [6]) [%] | Activity (Setaria faberi [7]) [%] | Activity (Lolium perenne [8]) [%] | Activity (Lolium perenne [9]) [%] | Activity (Avena fatua [10]) [%] | Activity (Avena fatua [11]) [%] | Activity (Setaria faberi [22]) [%] | further results |
| --- | --- | --- | --- | --- | --- | --- | --- | --- | --- | --- | --- | --- | --- |
| Cc1cc(C)c(C2C(=O)N3CC(C)C(C)CN3C2=O)c(C)c1 (configuration not stated) | 60 | 60 | 80 | 80 | 80 | 20 |  |  |  |  |  |  |  |
| Cc1cc(C)c(C2C(=O)N3CCOCCN3C2=O)c(C)c1 |  |  |  |  |  |  | 100 | 90 | 100 | 80 | 100 | 80 | Activity (Lolium perenne [12]): 80%; Activity (Alopecurus myosuroides [13]): 10%; Activity (Avena fatua [14]): 60%; Activity (Triticum aestivum [15]): 0%; Activity (Hordeum vulgare [16]): 0%; Activity (Setaria faberi [17]): 90%; Activity (Lolium perenne [18]): 90%; Activity (Alopecurus myosuroides [19]): 80%; Activity (Triticum aestivum [20]): 50%; Activity (Hordeum vulgare [21]): 20%; Activity (Setaria faberi [23]): 50%; Activity (Avena fatua [24]): 90% |
| Cc1cc(C)c(C2C(=O)N3C[C@H]4CCCC[C@H]4CN3C2=O)c(C)c1 (some centres not stated) | 60 | 60 | 90 | 80 | 60 | 50 |  |  |  |  |  |  |  |
| CCc1cc(C)cc(CC)c1-c1c(OC(=O)N(CC)CC)n2n(c1=O)CCOCC2 |  |  |  |  |  |  |  |  |  |  |  |  | Activity (Lolium perenne [12]): 0%; Activity (Alopecurus myosuroides [13]): 0%; Activity (Avena fatua [14]): 0%; Activity (Triticum aestivum [15]): 0%; Activity (Hordeum vulgare [16]): 0%; Activity (Setaria faberi [23]): 0% |
| COC1CN2C(=O)C(c3c(C)cc(C)cc3C)C(=O)N2C1 | 0 | 60 | 20 | 20 | 20 | 0 |  |  |  |  |  |  |  |
| CCc1cc(C)cc(CC)c1-c1c(OC(=O)OC(C)C)n2n(c1=O)CCOCC2 |  |  |  |  |  |  |  |  |  |  |  |  | Activity (Lolium perenne [12]): 100%; Activity (Alopecurus myosuroides [13]): 80%; Activity (Avena fatua [14]): 90%; Activity (Triticum aestivum [15]): 0%; Activity (Hordeum vulgare [16]): 0%; Activity (Setaria faberi [23]): 100% |
| Cc1cc(C)c(-c2c(OC(=O)C(C)(C)C)n3n(c2=O)CCSCC3)c(C)c1 |  |  |  |  |  |  | 100 | 40 | 80 | 50 | 90 | 60 |  |
| Cc1cc(C)c(C2C(=O)N3CCCC(C)N3C2=O)c(C)c1 (configuration not stated) | 80 | 40 | 90 | 90 | 40 | 20 |  |  |  |  |  |  |  |
| Cc1cc(C)c(-c2c(OC(=O)C(C)(C)C)n3n(c2=O)CCS(=O)(=O)CC3)c(C)c1 |  |  |  |  |  |  | 50 | 10 | 50 | 20 | 80 | 10 |  |
| CCc1cc(C)cc(CC)c1-c1c(OCOC(=O)C(C)(C)C)n2n(c1=O)CCOCC2 |  |  |  |  |  |  |  |  |  |  |  |  | Activity (Lolium perenne [12]): 100%; Activity (Alopecurus myosuroides [13]): 60%; Activity (Avena fatua [14]): 100%; Activity (Triticum aestivum [15]): 10%; Activity (Hordeum vulgare [16]): 0%; Activity (Setaria faberi [23]): 90% |
| Cc1cc(C)c(C2C(=O)N3C[C@H]4CCCC[C@@H]4CN3C2=O)c(C)c1 | 50 | 80 | 60 | 50 | 60 | 50 |  |  |  |  |  |  |  |
| CCc1cc(CC)c(C2C(=O)N3CCCCN3C2=O)c(CC)c1 |  |  |  |  |  |  |  |  |  |  |  |  | Activity (Lolium perenne [25]): 60%; Activity (Setaria faberi [26]): 50%; Activity (Avena fatua [27]): 100%; Activity (Alopecurus myosuroides [28]): 90%; Activity (Triticum aestivum [29]): 40%; Activity (Hordeum vulgare [30]): 40% |
| Cc1cc(C)c(C2C(=O)N3CCS(=O)(=O)CCN3C2=O)c(C)c1 |  |  |  |  |  |  | 60 | 20 | 60 | 60 | 80 | 20 |  |
| Cc1cc(C)c(C2C(=O)N3CCN(C)CCN3C2=O)c(C)c1 |  |  |  |  |  |  | 90 | 10 | 60 | 0 | 10 | 40 |  |
| CCc1cc(C)cc(CC)c1C1C(=O)N2CCCCN2C1=O |  |  |  |  |  |  |  |  |  |  |  |  | Activity (Lolium perenne [25]): 90%; Activity (Setaria faberi [26]): 80%; Activity (Avena fatua [27]): 100%; Activity (Alopecurus myosuroides [28]): 90%; Activity (Triticum aestivum [29]): 80%; Activity (Hordeum vulgare [30]): 90% |
